Key:
Rattus norvegicus [1] = assay: Toxicity in 5/6 nephrectomized uremic Sprague-Dawley rat assessed as dose require to cause hypercalcemia administered 3 times per week for 12 days measured 24 hrs post last dose; format: organism-based; details: in vivo
HL-60 = assay: Induction of human HL60 cell differentiation after 4 days by NBT reduction assay; format: functional, cell-based; details: HL-60, 96 h
Rattus norvegicus [2] = assay: Agonist activity at VDR in 5/6 nephrectomized uremic Sprague-Dawley rat assessed as dose require to suppress serum PTH level administered 3 times per week for 12 days measured 24 hrs post last dose by ELISA; format: functional
Vitamin D3 receptor [3] = target: T1, Vitamin D3 receptor (Homo sapiens, UniProt P11473); assay: Binding affinity to VDR (unknown origin)
T1 sequence (P11473 whole entry): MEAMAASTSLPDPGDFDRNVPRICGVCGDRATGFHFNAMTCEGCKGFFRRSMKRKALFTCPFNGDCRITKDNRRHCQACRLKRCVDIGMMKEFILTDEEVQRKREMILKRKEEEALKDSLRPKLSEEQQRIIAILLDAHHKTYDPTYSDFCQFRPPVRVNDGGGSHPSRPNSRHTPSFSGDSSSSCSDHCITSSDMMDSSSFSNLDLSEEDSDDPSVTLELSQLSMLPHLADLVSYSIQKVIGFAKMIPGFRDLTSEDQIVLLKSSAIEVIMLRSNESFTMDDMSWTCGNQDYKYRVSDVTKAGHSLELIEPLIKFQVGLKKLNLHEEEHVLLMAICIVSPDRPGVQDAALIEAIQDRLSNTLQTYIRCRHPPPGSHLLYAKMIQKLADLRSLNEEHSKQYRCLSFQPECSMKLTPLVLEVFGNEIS

Vitamin D3 receptor [4] = target: T1, Vitamin D3 receptor; assay: Agonist activity at VDR ligand binding domain (unknown origin) by reporter gene assay
[5] = Therapeutic index, ratio for induction of hypercalcemia over suppression of serum PTH level in 5/6 nephrectomized uremic Sprague-Dawley rat; format: organism-based; details: read-out: TI

Compound	Activity (Rattus norvegicus [1])	EC50 (HL-60)	Activity (Rattus norvegicus [2])	IC50 (Vitamin D3 receptor [3])	EC50 (Vitamin D3 receptor [4])	selectivity ratio [5]
C=C1[C@H](O)CC(=C/C=C2\CCC[C@]3(C)[C@@H]([C@@H](C)OC[C@H](C)C(C)(C)O)CC[C@@H]23)C[C@H]1O	> 0.6 µg/kg	11.8 nM	0.004 µg/kg	38 nM	< 0.1 nM	> 50
C[C@H](/C=C/[C@H](C)C(C)(C)O)[C@H]1CC[C@H]2/C(=C/C=C3C[C@@H](O)C[C@H](O)C3)CCC[C@]12C [PARICALCITOL]	> 0.08 µg/kg	12.5 nM	0.02 µg/kg	–	–	4

— ChEMBL document CHEMBL2434873, “Synthesis of VS-105: A novel and potent vitamin D receptor agonist with reduced hypercalcemic effects” (Bioorg Med Chem Lett, 2013)
